Data set [1] can be described thus: Radioactivity in organs of mice carrying B16 melanomas after IP injection of molecule A. The format is in vivo. Also noted: Radioactivity measured: unit not given here. The settings on record: for Radioactivity measured: 10 μCi/animal.
For data set [2], the system named is fibroblasts. The data set is described as follows: Toxicity on cell cultures of fibroblasts. The format is cell-based.
Data set [3] has as its system B16 melanoma cells. The data set is described as follows: Toxicity / cytotoxicity on B16 melanoma cells. The format is cell-based. The procedure:
The cytotoxicity of this molecule was tested on B16 melanoma cells; no toxicity could be measured up to concentrations of greater than 100 μM.

For data set [4], the system named is microvessel growth (chick aortic ring). The data set is described as follows: Vascular growth assay on chick embryos (chick aortic ring assay). The format is cell-based. The text has this: The ongoing research will make it possible to specify its effectiveness, compared with thalidomide alone, in blocking tumor development.
The nature of data set [5]: Radioactivity in mice carrying B16 melanoma after IV injection of iodine 125-labeled molecule B. The format is in vivo. Also noted: Radioactivity measured: unit not given here. The settings on record: for Radioactivity measured: 10 μCi/animal.
A short description of data set [6]: Water-solubility. In kind it is physicochemical. An excerpt:
As has been seen, however, the growth of a cancerous tumor is closely linked to its rate of vascularization and therefore to the phenomenon of angiogenesis that accompanies it. These observations had the scientific community to develop substrates, as has been seen, capable of inhibiting angiogenesis and therefore of blocking, by this means, the development of tumors. It is in fact now commonly accepted that membrane proteins carried by the angiogenic cells, and called integrins, participate actively in the process of proliferation of these cells. More particularly, αVβ3 integrins recognize a specific peptide sequence, the RGD (arginine-glycine-aspartic acid) sequence. The grafting of this unit onto the proposed vector should therefore provide it with an ability to specifically target angiogenic sites and therefore, ultimately, tumor sites. The addition, to this same vector, of an antimitotic agent should allow the selective destruction of the cancerous cells. In this perspective, molecule B was initially prepared to verify the innocuousness of the vector and to determine its specificity. In order to give the targeting agent a greater degree of freedom, said targeting agent was grafted onto the central lysine by means of a […] amino acid, serine. The molecule is water-soluble and is amphiphilic in nature. [drawing 11]

In data set [7] the test system is fibroblasts exhibiting the NARP mutation. In kind it is cell-based. The text has this:
The aim pursued here was to refine and to simplify the structure of these substrates while at the same time conserving their biological activity in order to develop a synthetic process that can be readily adapted to the industrial phase.

As for `O=C1CCC(N2C(=O)c3ccc(C(=O)NC(Cc4ccc(O)cc4)C(=O)NCCCCC(NC(=O)C(O)[C@H](O)[C@H](O[C@@H]4OC(CO)[C@H](O)[C@H](O)C4O)C(O)CO)C(=O)NCCC(F)(F)C(F)(F)C(F)(F)C(F)(F)C(F)(F)C(F)(F)C(F)(F)C(F)(F)F)cc3C2=O)C(=O)N1` (stereo partly drawn) [molecule A], the Radioactivity measured was determined as 5.9 ± 1.2 in data set [1] (Blood, 15 min after IP injection); 3.4 ± 0.7 in data set [1] (Blood, 1 h after IP injection); 4.6 ± 0.5 in data set [1] (Kidney, 15 min after IP injection); 4.0 ± 0.9 in data set [1] (Kidney, 1 h after IP injection); 4.5 ± 1.1 in data set [1] (Liver, 15 min after IP injection); 2.2 ± 0.8 in data set [1] (Liver, 1 h after IP injection). In addition, the Radioactivity measured came to 5.6 ± 0.8 in data set [1] (Thyroid, 15 min after IP injection); 9.8 ± 1.7 in data set [1] (Thyroid, 1 h after IP injection); 2.6 ± 0.5 in data set [1] (Tumor (center), 15 min after IP injection); 2.7 ± 0.5 in data set [1] (Tumor (center), 1 h after IP injection); 4.5 ± 0.7 in data set [1] (Tumor (stroma), 15 min after IP injection); 5.4 ± 0.2 in data set [1] (Tumor (stroma), 1 h after IP injection). Besides, the Localisation in vivo entry in data set [1] (mice carrying B16 melanomas, IP injection) was “concentrated in the stroma of the tumor”. Also, the “Toxicity on cell cultures” value in data set [2] and in data set [3] (B16 melanomas) was “no totally unacceptable toxicity” each time. Also, the results for the Inhibiting microvessel growth entry in data set [4] (at 20 μM) and in data set [4] (at 200 μM) were “effective” and “completely blocks the development”, respectively.

For the molecule `COC(=O)C(CCCCNC(=O)C(Cc1ccc(O)cc1)NC(=O)C(C)(C)C(C)(C)C(F)(F)C(F)(F)C(F)(F)C(F)(F)C(F)(F)C(F)(F)C(F)(F)C(F)(F)F)NCC(CO)NC(=O)C(CC(=O)O)NC(=O)CNC(=O)C(N)CCCNC(=N)N` (stereo not drawn) [molecule B], the Radioactivity measured in data set [5] (Blood, 15 min after IV injection) is 5.8 ± 0.8; in data set [5] (Blood, 30 min after IV injection) it was 4.5 ± 0.8; in data set [5] (Blood, 1 h after IV injection), 3.6 ± 0.7; in data set [5] (Kidney, 15 min after IV injection), 8.9 ± 1.6; in data set [5] (Kidney, 30 min after IV injection), 5.9 ± 0.6; in data set [5] (Kidney, 1 h after IV injection), 3.5 ± 0.6. For the same molecule, the Radioactivity measured in data set [5] (Liver, 15 min after IV injection) stood at 4.8 ± 0.8; in data set [5] (Liver, 30 min after IV injection), 2.2 ± 0.6; in data set [5] (Liver, 1 h after IV injection) it was 2.4 ± 0.7; in data set [5] (Thyroid, 15 min after IV injection), 5.9 ± 1.2; in data set [5] (Thyroid, 30 min after IV injection), 10.2 ± 2.5; in data set [5] (Thyroid, 1 h after IV injection) it was 15.3 ± 5.3. Besides, the Radioactivity measured in data set [5] (Tumor (center), 15 min after IV injection) worked out at 1.7 ± 0.6; in data set [5] (Tumor (center), 30 min after IV injection), 1.8 ± 0.3; in data set [5] (Tumor (center), 1 h after IV injection), 2.4 ± 0.4; in data set [5] (Tumor (stroma), 15 min after IV injection), 3.9 ± 0.8; in data set [5] (Tumor (stroma), 30 min after IV injection) it was 3.8 ± 0.9; in data set [5] (Tumor (stroma), 1 h after IV injection), 4.2 ± 0.6. In addition, the Localisation in vivo result in data set [5] (iodine 125-labeled, injected intravenously, mice carrying a melanoma) is “accumulates in the stroma of the tumor”. For the same molecule, in data set [3] (B16 melanoma cells), the “Cytotoxicity: concentration up to which no toxicity could be measured” value is “greater than 100 μM”. Also, in data set [6], the Water-solubility result is on record as “water-soluble”.

In the case of `CC(C)(C)/[N+]([O-])=C/c1ccc(C(=O)NCCCCC(NC(=O)C(O)[C@H](O)[C@H](O[C@@H]2OC(CO)[C@H](O)C(O)C2O)C(O)CO)C(=O)NCCC(F)(F)C(F)(F)C(F)(F)C(F)(F)C(F)(F)C(F)(F)C(F)(F)C(F)(F)F)cc1` (stereo partly drawn) [molecule E], the Toxicity result in data set [7] is “No toxicity was measured”. Also, in data set [7] (NARP fibroblasts, in vitro), the Cell protection entry is “exhibits a capacity for cell protection” and the “Effect on the apoptotic process” value is listed as “inhibits the apoptotic process”.

On to `O=C1CCC(N2C(=O)c3ccccc3C2=O)C(=O)N1` (stereo not drawn) [thalidomide, reference compound], for which the Inhibiting microvessel growth result in data set [4] (at such concentrations (20 μM, 200 μM)) is “ineffective”.

The values are drawn from patent US20060167223A1, “Novel ampiphilic fluorocarbon molecular vectors for biomedical and medical use” (priority 2002, published 2006).
